As a reminder, the melting point is the temperature of the solid-liquid transition. As for `CCOC(=O)c1cn([C@@H](C)COS(C)(=O)=O)c2c(F)c(-c3cc(C)nc(C)c3)c(F)cc2c1=O`, the melting point was in the range of 180 to 183 °C.

Consider `COC(=O)c1ccc(NCCNC(=O)C2Cc3ccccc3N2S(=O)(=O)c2ccc(-c3cc(C(F)(F)F)ccc3Cl)cc2)cc1` (stereo unspecified), for which the melting point lay within 96 to 98 °C.

Turning to `CC(=O)N1CCC(F)(Cc2c3c(nn2C)c(N)nc2ccccc23)CC1`, the melting point lay in the range of 241 to 243 °C.

Compound `CCOC(=O)c1ccc2c(c1)S(=O)c1ccccc1-2` (stereo unspecified) registered a melting point of 210 to 213 °C.

With `O=C1CCC(c2cccc(F)c2)(c2cccc(F)c2)[C@@H]2CN(C(=O)Cc3ccccc3)C[C@H]12` (racemic), the melting point was determined as 108 °C.

`COc1c(CBr)nc2sc(Cl)cn2c1=O` yielded a melting point of 160 to 162 °C.

For `Fc1cccc(F)c1-c1ncc(-c2ccc(Br)cc2)nn1`, the melting point fell in the range of 180 to 181 °C.

Compound `O=c1[nH]c2ncc(-c3ccc(O)cc3)nc2n1C1CCCC1` returned a melting point of 299 to 301 °C.

`CCC(=O)Nc1ccc(C(=O)c2nc(-c3cccc(C(=O)O)c3)c3ccccn23)cc1OC` came in with a melting point of 145 °C.

Compound `COC(=O)C=Cc1ccc(OCC(C)=O)cc1` showed a melting point of 117 to 118 °C.

In turn, `COc1cc(OC)c2c(=O)[nH]c(-c3ccc(OCCNC(C)C)c(-c4ccccc4S(C)(=O)=O)n3)nc2c1` yielded a melting point of 178 to 180 °C.

`O=C1Cc2ccccc2N1Nc1ccncc1`: the melting point fell in the range of 221 to 224 °C.

`O=C(O)CCCCCCCCn1nc(-c2ccccc2)c(-c2ccccc2)cc1=O`: the melting point lay in the range of 100 to 103 °C.

In turn, `Cc1csc(N2N=C(c3ccc([N+](=O)[O-])cc3)c3cc4c(cc3CC2C)OCO4)n1` (stereo unspecified) registered a melting point of 188 to 189 °C.

`Clc1ccc(-c2cc[nH]c2)cc1`: the melting point lay in the range of 117 to 118 °C.

Turning to `CCOc1cc2ncc(C#N)c(CC(=O)c3ccc(Br)cc3)c2cc1OCC`, the melting point was in the range of 210 to 213 °C.

`Cc1c(-c2ccc(F)cc2)oc2c(-c3ccc(S(C)(=O)=O)cc3)c(-c3ccc(F)cc3)nn12` had a melting point of 289 to 291 °C.

`CC(C)C(C(=O)O)c1ccc2sccc2c1` (stereo unspecified) came in with a melting point of 150 to 151 °C.

In the case of `N#Cc1c(Br)c(Br)n(C(=O)Oc2ccccc2)c1Br`, the melting point was 128 to 129 °C.

Turning to `CC[C@H](NS(=O)(=O)c1ccc(OC)cc1)C(=O)OC`, the melting point stood at 64 °C.

Compound `N#Cc1cc(I)ccc1N` yielded a melting point of 85 to 86 °C.

`c1nc(Nc2ccc3[nH]ccc3c2)c2sc(-c3ccc(CN4CCOCC4)cc3)cc2n1` displayed a melting point of 141 to 152 °C.

Compound `O=C(CN1C(=O)C2(COc3cc(Cl)ccc32)c2ccccc21)Nc1ccccc1F` (stereo unspecified) showed a melting point of 70 to 75 °C.

`Cc1cc(-c2nn(CC(C)C)c(=O)c(O)c2C)ccc1F`: the melting point lay within 107 to 110 °C.

Compound `Nc1ccc(-n2cnn(-c3ccc(OC(F)(F)F)cc3)c2=O)cc1` returned a melting point of 115 to 120 °C.

Regarding `O=[N+]([O-])c1cc(C(F)(F)F)ccc1N1CCc2ccccc21`, the melting point lay within 89 to 92 °C.

`O=C(Nc1ccccc1S(=O)(=O)N1CCCCC1)N[C@@H](Cc1ccc(Nc2nccc3ccncc23)cc1)C(=O)O` came in with a melting point of 179 °C.

The compound `COc1ccc(NC(=S)c2ccc(N(C)C)cc2)cc1` gave a melting point of 192 °C.

In turn, `CCOC(=O)C1(C(=O)OCC)Oc2c(ccc(OC)c2Cl)C1O` (stereo unspecified) displayed a melting point of 116 to 117 °C.

In the case of `N#Cc1c(-c2cccs2)[nH]c(C(F)(F)F)c1Cl`, the melting point was in the range of 221 to 223 °C.

On to `N#CNC(=O)[C@H](Cc1ccccc1)NC(=O)[C@@H]1CCC(=O)N1`, for which the melting point lay in the range of 163 to 165 °C.

In turn, `CCOCc1nc2c(N)nc3cc(Br)ccc3c2n1CC1CCOCC1` came in with a melting point of 186 to 188 °C.

In turn, `CCOC(=O)COc1ccc(-c2nc3ncccc3[nH]2)c(OC)c1` displayed a melting point of 198 °C.

Turning to `S=C(Cc1cccnc1)N1CCOCC1`, the melting point was in the range of 158 to 160 °C.

`CCCCN(CCCC)S(=O)(=O)N[C@@H](Cc1ccc(NC(=O)c2c(Cl)cncc2Cl)cc1)C(=O)O` showed a melting point of 167 °C.

Compound `CCCCn1cc(C(=O)O)c2ccccc21` showed a melting point of 124 to 126 °C.

Regarding `COc1ccc(C(=Nc2c(Cl)cncc2Cl)NCc2ccccc2)cc1OC1CCCC1`, the melting point lay in the range of 129 to 133 °C.

With `C[C@H](N)Cn1ncc2ccc3oc(C(=O)NCC(C)(C)CO)cc3c21`, the melting point is 103 °C.

The compound `COc1cc(C=O)ccc1OCC#CI` returned a melting point of 121 to 127 °C.

`CC(C)Cn1cnc2c(Cl)nc3ccccc3c21` showed a melting point of 134 to 136 °C.

Take `CCS(=O)(=O)c1ccc2cc(C(=O)O)ccc2c1`: the melting point stood at 241 °C.

The compound `O=C(CCc1ccc([N+](=O)[O-])cc1)NCCO` showed a melting point of 122 to 125 °C.

In the case of `OC(c1ccccc1)(c1ccccc1)c1ccccc1Cl`, the melting point came out at 87 °C.

For `COc1cc(C=Nc2cc(Cl)c(N=CN(C)C)c(Cl)c2)cc(OC)c1`, the melting point was 133 to 135 °C.

Compound `CCCNC(=O)Cc1ccc2ccn(C3CCN(CCc4ccc(F)cc4)CC3)c2c1` displayed a melting point of 131 to 132 °C.

The compound `CCCCCCN(C)c1ccc(C=C2SC(=S)N(CC(=O)NC)C2=O)cc1` came in with a melting point of 228 to 230 °C.

Turning to `CCOC(=O)NC(=O)N1CC1C#N` (stereo unspecified), the melting point lay in the range of 108 to 110 °C.

As to `CCn1ncc2c(Cl)cc(-c3ccccc3)nc21`, the melting point was in the range of 43 to 45 °C.

The compound `NC(=O)c1occc1C(=O)NC1CCN(Cc2ccc3ccccc3c2)CC1` displayed a melting point of 157 to 159 °C.

With `CO/C=C(/C(=O)OC)c1ccccc1Oc1cc(Cl)nc(Cl)n1`, the melting point was 88 to 90 °C.

As for `Oc1ccc2c(-c3ccc4c(Br)c(O)ccc4c3)noc2c1`, the melting point lay in the range of 275 to 277 °C.

`CS(=O)(=O)c1ccc(-c2sc(COc3ccccc3Cl)nc2-c2ccc(F)cc2)cc1` returned a melting point of 189 to 191 °C.

`N#CC12COc3cc(Cl)ccc3C1=NN(C(=O)Nc1ccc(C(F)(F)F)cc1)C2` (stereo unspecified) came in with a melting point of 227 to 229 °C.

`C[N+]([O-])=CCC=Cc1ccccc1`: the melting point was 85 to 86 °C.

For the compound `O=C(N[C@H]1CCN(CCc2ccc(F)cc2)C1)N(C1CCCCC1)C1CCCCC1`, the melting point fell in the range of 97 to 98 °C.

Turning to `CC(C)(CNC(=O)CCCC(=O)O)SN=O`, the melting point lay in the range of 104 to 107 °C.

In turn, `CCCn1ccc2c(NCCc3ccc(O)cc3)cccc2c1=O` showed a melting point of 170 to 171 °C.

In the case of `CCOC(=O)C1=C(C)NC(c2cscn2)=NC1c1cccc(C)c1` (stereo unspecified), the melting point lay within 133 to 134 °C.

`COc1ccc(Oc2ccc3ccc(NC(=O)c4ccccc4)nc3n2)cc1` displayed a melting point of 171 °C.

As for `CCC(CN1CCCC1)C(C#N)(c1ccccc1)c1ccccc1` (stereo unspecified), the melting point amounted to 90 °C.

In the case of `Cc1cc(C)c(Cc2cnc(NCCCCc3ncc(Br)cc3C)[nH]c2=O)cn1`, the melting point was in the range of 110 to 112 °C.

Consider `CC(C)(C)OC(=O)c1ncn2c1CN=C(c1ccccc1)c1cc(Br)ccc1-2`, for which the melting point lay in the range of 222 to 223 °C.

`Cc1ccc(-c2ccc3c(c2)C=C(C(=O)Nc2ccc(CO)cc2)CC3)cc1` showed a melting point of 219 to 220 °C.

Take `Cc1csc2c1S(=O)(=O)N=C(NC(C)C)N2`: the melting point lay in the range of 152 to 154 °C.

The compound `O=C1O[C@@H](Cn2ccnn2)CN1c1ccc(-c2ccc(C3=NOC(CNCCc4ccncc4)C3)nc2)c(F)c1` (stereo partly specified) returned a melting point of 181 °C.

Regarding `CCOC(=O)c1cc2ccnc(Cl)c2[nH]1`, the melting point lay within 152 to 157 °C.

With `COC(=O)C1=C(C)N(Cc2ccccc2[N+](=O)[O-])C(C)=C(C(=O)OC)C1c1cccc2nonc12`, the melting point was 192 °C.

Compound `Cc1ccccc1C1=C(c2cccc(OCc3ccccc3)c2)OS(=O)(=O)CC1` returned a melting point of 257 to 259 °C.

On to `Cn1cc(-c2cnc3[nH]c(=O)n(CC4CCOCC4)c3n2)cn1`, for which the melting point was in the range of 224 to 226 °C.

`COc1ccc(-c2cnn3cnnc3n2)cc1` displayed a melting point of 282 to 284 °C.

`CN1C(=O)Cn2cc(C(=O)NCc3ccc(F)cc3)c(=O)c3cc(CN4CCOCC4)cc1c32` returned a melting point of 222 to 224 °C.

`OCCCCCCn1nc(-c2ccccc2)c(-c2ccccc2)c1-c1ccccc1` gave a melting point of 76 to 78 °C.

On to `CNC(=S)N1CCSC1c1ccccc1OCCN1CCC(c2ccccc2)CC1` (stereo unspecified), for which the melting point lay in the range of 141 to 142 °C.

The compound `COc1cc2c(C)c(C#N)cnc2cc1OCc1cccnc1` returned a melting point of 206 to 210 °C.

Compound `O=C(O)CNc1ccc(Cl)c(Cl)c1` registered a melting point of 128 to 130 °C.

In turn, `CCOc1ccc(S(=O)(=O)Cl)cc1C(=O)OC` had a melting point of 99 to 100 °C.

`OC1CN(CCCOCCc2ccc3sccc3c2)C1`: the melting point was 60 to 62 °C.

`CCCOC(=N)c1sc2ccccc2c1O` had a melting point of 185 °C.

In the case of `CN1C(=O)C(c2cccc(-c3cccnc3F)c2)(c2cnn(CCF)c2)N=C1N` (stereo unspecified), the melting point was in the range of 195 to 197 °C.

Regarding `CCCOc1c(OC)cc([C@H]2CC[C@H](c3cc(OC)c(OC)c(OC)c3)O2)cc1S(C)(=O)=O` (relative stereo), the melting point lay within 95 to 96 °C.

Consider `Cc1cc(-c2ccc(C(F)(F)F)cc2)nc(Oc2cccc(C(F)(F)F)c2)n1`, for which the melting point was 124 to 127 °C.

Turning to `Cc1ccc(S(=O)(=O)c2ccc3[nH]c(C)c(CCNC(=O)OC(C)(C)C)c3c2)cc1`, the melting point is 134 to 138 °C.

For `CCC(CC(=O)NC(=O)OC(C)(C)C)Nc1ccc(Cl)cc1` (stereo unspecified), the melting point lay within 93 to 94 °C.

Compound `CCOC(=O)C(OC(C)=O)c1ccc(-c2ccc(-c3ccccc3)cc2)o1` (stereo unspecified) yielded a melting point of 136 to 140 °C.

Take `Nc1cc(Oc2ccncc2)ccc1[N+](=O)[O-]`: the melting point was in the range of 170 to 175 °C.

With `NC(=O)C1Oc2cc(Cl)c(S(=O)(=O)c3ccc(Cl)cc3)cc2O1` (stereo unspecified), the melting point was in the range of 240 to 242 °C.

`Cc1nc(-c2cccc([N+](=O)[O-])c2)cs1` gave a melting point of 87 to 88 °C.

The compound `C/C(NC1CCCCCC1)=C(\C#N)C(N)=S` returned a melting point of 132 to 134 °C.

Regarding `CCc1cn(C2CC(O)C(CCCO)O2)c(=O)[nH]c1=O` (stereo unspecified), the melting point is 113 to 115 °C.

The compound `CCOC(=O)C(=NOCC(N)=O)c1csc(NC(c2ccccc2)(c2ccccc2)c2ccccc2)n1` came in with a melting point of 180 °C.

Compound `CC1(C)CCC(C)(C)C1C(=O)O` gave a melting point of 114 °C.
